Source: PubChem BioAssay (NCI)
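Tested at 5 concentrations; 48 h exposure; 96-well plates; endpoints linearly interpolated, else capped at highest concentration. At the GI50, growth is halved. Definition used: TGI = concentration required for complete inhibition of growth.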

Tests used:
Test in all cases: inhibition of tumour cell growth, NCI panel, 48 h
[1] = tested on: NCI-H226 lung
[2] = tested on: OVCAR-5 ovarian
[3] = tested on: NCI-H23 lung
[4] = tested on: HOP-92 NSCLC
[5] = tested on: KM12 colon
[6] = tested on: HCT-15 colon
[7] = tested on: HT29 colon
[8] = tested on: SNB-75 CNS
[9] = tested on: IGROV1 ovarian
[10] = tested on: MALME-3M melanoma
[11] = tested on: NCI/ADR-RES ovarian
[12] = tested on: TK-10 renal
[13] = tested on: SF-295 CNS
[14] = tested on: SF-268 CNS
[15] = tested on: HCT-116 colon
[16] = tested on: BT-549 breast
[17] = tested on: SR leukemia
[18] = tested on: SNB-19 CNS
[19] = tested on: SK-OV-3 ovarian
[20] = tested on: SK-MEL-28 melanoma
[21] = tested on: NCI-H522 lung
[22] = tested on: 786-0 renal
[23] = tested on: K-562 leukemia
[24] = tested on: T-47D breast
[25] = tested on: A549 NSCLC
[26] = tested on: SN12C renal
[27] = tested on: HS 578T breast
[28] = tested on: OVCAR-4 ovarian
[29] = tested on: OVCAR-8 ovarian
[30] = tested on: CAKI-1 renal
[31] = tested on: HL-60(TB) leukemia
[32] = tested on: PC-3 prostate
[33] = tested on: SW-620 colon
[34] = tested on: A498 renal
[35] = tested on: SF-539 CNS
[36] = tested on: UO-31 renal
[37] = tested on: ACHN renal
[38] = tested on: LOX IMVI melanoma
[39] = tested on: U251 CNS
[40] = tested on: HOP-62 NSCLC
[41] = tested on: HCC-2998 colon
[42] = tested on: UACC-257 melanoma
[43] = tested on: M14 melanoma
[44] = tested on: NCI-H460 lung
[45] = tested on: SK-MEL-2 melanoma
[46] = tested on: COLO 205 colon
[47] = tested on: DU-145 prostate
[48] = tested on: MDA-MB-435
[49] = tested on: RPMI-8226 leukemia
[50] = tested on: UACC-62 melanoma
[51] = tested on: OVCAR-3 ovarian
[52] = tested on: MOLT-4 leukemia
[53] = tested on: SK-MEL-5 melanoma
[54] = tested on: MDA-MB-231 breast
[55] = tested on: MCF7 breast
[56] = tested on: CCRF-CEM leukemia
[57] = tested on: RXF 393 renal
[58] = tested on: EKVX NSCLC

O=C1c2ccccc2-c2c1c1ccccc1c(=O)n2CCCN1CCN(CCCn2c3c(c4ccccc4c2=O)C(=O)c2ccccc2-3)CC1 gave a GI50 [1] of over 76.5 µM, a TGI [1] of over 100 µM and a GI50 [2] of over 100 µM. For the same molecule, the TGI [2] was over 100 µM, the GI50 [3] was 34.5 µM and the TGI [3] was over 83.8 µM. For the same molecule, the GI50 [4] was 19.9 µM, the TGI [4] was 74.1 µM and the GI50 [5] was over 100 µM. The TGI [5] was over 100 µM, the GI50 [6] was over 79.7 µM and the TGI [6] was over 100 µM. For the same molecule, the GI50 [7] was over 100 µM, the TGI [7] was over 100 µM and the GI50 [8] was over 47.7 µM. For the same molecule, the TGI [8] was over 84 µM, the GI50 [9] was over 35 µM and the TGI [9] was over 100 µM. The GI50 [10] was over 57.6 µM, the TGI [10] was over 100 µM and the GI50 [11] was over 100 µM. It also gave a TGI [11] of over 100 µM, a GI50 [12] of 22.7 µM and a TGI [12] of over 70.8 µM. It also gave a GI50 [13] of 12.6 µM, a TGI [13] of over 86.1 µM and a GI50 [14] of 25 µM. The TGI [14] was over 100 µM, the GI50 [15] was 35.3 µM and the TGI [15] was over 100 µM. For the same molecule, the GI50 [16] was over 75.2 µM, the TGI [16] was over 100 µM and the GI50 [17] was 0.0809 µM. It also gave a TGI [17] of 17.9 µM, a GI50 [18] of 99.4 µM and a TGI [18] of over 100 µM. The GI50 [19] was over 100 µM, the TGI [19] was over 100 µM and the GI50 [20] was over 100 µM. It also gave a TGI [20] of over 100 µM, a GI50 [21] of over 100 µM and a TGI [21] of over 100 µM. For the same molecule, the GI50 [22] was 2.22 µM, the TGI [22] was over 32 µM and the GI50 [23] was 42.7 µM. It also gave a TGI [23] of over 100 µM, a GI50 [24] of over 100 µM and a TGI [24] of over 100 µM. The GI50 [25] was over 100 µM, the TGI [25] was over 100 µM and the GI50 [26] was over 39.2 µM. For the same molecule, the TGI [26] was over 92 µM, the GI50 [27] was over 100 µM and the TGI [27] was over 100 µM. It also gave a GI50 [28] of over 100 µM, a TGI [28] of over 100 µM and a GI50 [29] of 15.6 µM. It also gave a TGI [29] of over 100 µM, a GI50 [30] of over 100 µM and a TGI [30] of over 100 µM. For the same molecule, the GI50 [31] was 79.7 µM, the TGI [31] was over 100 µM and the GI50 [32] was over 100 µM. It also gave a TGI [32] of over 100 µM, a GI50 [33] of over 100 µM and a TGI [33] of over 100 µM. It also gave a GI50 [34] of over 55.3 µM, a TGI [34] of over 100 µM and a GI50 [35] of over 70.6 µM. It also gave a TGI [35] of over 100 µM, a GI50 [36] of over 45.7 µM and a TGI [36] of over 100 µM. For the same molecule, the GI50 [37] was 22.4 µM, the TGI [37] was over 100 µM and the GI50 [38] was over 88.3 µM. It also gave a TGI [38] of over 100 µM, a GI50 [39] of 5.44 µM and a TGI [39] of 18.7 µM. It also gave a GI50 [40] of 6.41 µM, a TGI [40] of 53.4 µM and a GI50 [41] of over 100 µM. It also gave a TGI [41] of over 100 µM, a GI50 [42] of over 100 µM and a TGI [42] of over 100 µM. It also gave a GI50 [43] of over 100 µM, a TGI [43] of over 100 µM and a GI50 [44] of over 68 µM. The TGI [44] was over 100 µM, the GI50 [45] was over 100 µM and the TGI [45] was over 100 µM. For the same molecule, the GI50 [46] was over 100 µM, the TGI [46] was over 100 µM and the GI50 [47] was 23.7 µM. The TGI [47] was over 86.4 µM, the GI50 [48] was over 100 µM and the TGI [48] was over 100 µM. The GI50 [49] was over 52.2 µM, the TGI [49] was over 100 µM and the GI50 [50] was over 100 µM. The TGI [50] was over 100 µM, the GI50 [51] was over 100 µM and the TGI [51] was over 100 µM. It also gave a GI50 [52] of 0.325 µM, a TGI [52] of 21.9 µM and a GI50 [53] of over 100 µM. The TGI [53] was over 100 µM, the GI50 [54] was 2.41 µM and the TGI [54] was 27.4 µM. The GI50 [55] was over 100 µM, the TGI [55] was over 100 µM and the GI50 [56] was 13.8 µM. The TGI [56] was over 100 µM, the GI50 [57] was 46.2 µM and the TGI [57] was over 100 µM. It also gave a GI50 [58] of over 100 µM and a TGI [58] of over 100 µM.

Clc1ccc(-c2nn3ncccc3c2-c2ccnc(Nc3ccccc3)n2)cc1 was tested, and the GI50 [1] was over 13.1 µM, the TGI [1] was over 25 µM and the GI50 [2] was 11.9 µM. For the same molecule, the TGI [2] was over 25 µM, the GI50 [3] was 10.5 µM and the TGI [3] was over 25 µM. It also gave a GI50 [4] of 2.89 µM, a TGI [4] of over 21.6 µM and a GI50 [5] of 9.03 µM. The TGI [5] was over 25 µM, the GI50 [6] was 7.94 µM and the TGI [6] was over 25 µM. The GI50 [7] was 6.51 µM, the TGI [7] was over 25 µM and the GI50 [8] was 6.31 µM. The TGI [8] was over 25 µM, the GI50 [9] was 2.29 µM and the TGI [9] was over 22 µM. It also gave a GI50 [10] of over 20.6 µM, a TGI [10] of over 25 µM and a GI50 [11] of 8.01 µM. It also gave a TGI [11] of over 25 µM, a GI50 [12] of 7.43 µM and a TGI [12] of over 20.4 µM. It also gave a GI50 [13] of 9.67 µM, a TGI [13] of over 25 µM and a GI50 [14] of 11.5 µM. It also gave a TGI [14] of over 25 µM, a GI50 [15] of 7.02 µM and a TGI [15] of over 25 µM. For the same molecule, the GI50 [16] was 10.7 µM, the TGI [16] was over 25 µM and the GI50 [17] was 7.66 µM. For the same molecule, the TGI [17] was over 25 µM, the GI50 [18] was over 14.4 µM and the TGI [18] was over 25 µM. It also gave a GI50 [19] of 6.55 µM, a TGI [19] of over 25 µM and a GI50 [20] of over 22.2 µM. The TGI [20] was over 25 µM, the GI50 [21] was 5.99 µM and the TGI [21] was over 25 µM. For the same molecule, the GI50 [22] was 8.2 µM, the TGI [22] was over 25 µM and the GI50 [23] was 2.89 µM. For the same molecule, the TGI [23] was over 25 µM, the GI50 [24] was 10.2 µM and the TGI [24] was over 25 µM. It also gave a GI50 [25] of 11.3 µM, a TGI [25] of over 25 µM and a GI50 [26] of 8.29 µM. The TGI [26] was over 25 µM, the GI50 [27] was 6.4 µM and the TGI [27] was over 22 µM. For the same molecule, the GI50 [28] was 9.6 µM, the TGI [28] was over 25 µM and the GI50 [29] was 11.8 µM. For the same molecule, the TGI [29] was over 25 µM, the GI50 [30] was 2.5 µM and the TGI [30] was over 22.2 µM. It also gave a GI50 [31] of 11.3 µM, a TGI [31] of over 25 µM and a GI50 [32] of 7.3 µM. The TGI [32] was over 25 µM, the GI50 [33] was 12 µM and the TGI [33] was over 25 µM. The GI50 [34] was 4.42 µM, the TGI [34] was over 23.3 µM and the GI50 [35] was over 14.2 µM. The TGI [35] was over 25 µM, the GI50 [36] was 1.35 µM and the TGI [36] was over 16.1 µM. For the same molecule, the GI50 [37] was 3.69 µM, the TGI [37] was over 25 µM and the GI50 [38] was 9.23 µM. For the same molecule, the TGI [38] was over 25 µM, the GI50 [39] was 14.9 µM and the TGI [39] was over 25 µM. The GI50 [40] was over 21.4 µM, the TGI [40] was over 25 µM and the GI50 [41] was 10.9 µM. The TGI [41] was over 25 µM, the GI50 [42] was over 15.1 µM and the TGI [42] was over 25 µM. For the same molecule, the GI50 [43] was over 14.8 µM, the TGI [43] was over 25 µM and the GI50 [44] was 6.34 µM. It also gave a TGI [44] of over 25 µM, a GI50 [45] of 24.4 µM and a TGI [45] of over 25 µM. It also gave a GI50 [46] of over 18.7 µM, a TGI [46] of over 25 µM and a GI50 [47] of 11 µM. For the same molecule, the TGI [47] was over 25 µM, the GI50 [48] was 10.1 µM and the TGI [48] was over 25 µM. For the same molecule, the GI50 [49] was 11.7 µM, the TGI [49] was over 25 µM and the GI50 [50] was over 13 µM. The TGI [50] was over 25 µM, the GI50 [51] was 5.92 µM and the TGI [51] was over 25 µM. The GI50 [52] was 5.77 µM, the TGI [52] was over 25 µM and the GI50 [53] was over 12.4 µM. For the same molecule, the TGI [53] was over 25 µM, the GI50 [54] was 13.4 µM and the TGI [54] was over 25 µM. It also gave a GI50 [55] of 7.17 µM, a TGI [55] of over 25 µM and a GI50 [56] of 10.6 µM. The TGI [56] was over 25 µM, the GI50 [57] was 6.56 µM and the TGI [57] was over 25 µM. The GI50 [58] was 2.94 µM and the TGI [58] was over 25 µM.
